pIC50: −log10 of the molar value. Read-outs that look alike come from different tables or passages of the source.
Assays:
GSK 3α = GSK 3α (Homo sapiens (Human), UniProt P49840); test: GSK 3α enzyme inhibition (FRET, Z-LYTE, Method 2); assay type: biochemical; settings: read-out: IC50 Values for Enzyme Inhibition, GSK3α
Method in brief: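 Human GSK3α (500 ng/mL) preincubated with compound (4, 0.4, 0.04 or 0.004 μg/mL) at RT for 2 h (Method 1) or 105 min (Method 2). Then FRET peptide (8 μM) and ATP (40 μM) added for 1 h, followed by protease development for 1 h. IC50 from the coumarin/fluorescein emission ratio relative to uninhibited control.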

c-Src = c-Src (Homo sapiens (Human), UniProt P12931); test: c-Src enzyme inhibition (FRET, Z-LYTE); assay type: biochemical
Method: (§1) The enzyme inhibitory activities of compounds disclosed herein are determined by FRET using synthetic peptides labelled with both donor and acceptor fluorophores (Z-LYTE, Invitrogen Ltd., Paisley, UK).
(§2) The inhibitory activities of compounds of the invention against c-Src and Syk enzymes (Invitrogen), are evaluated in a similar fashion to that described hereinabove. The relevant enzyme (3000 ng/mL or 2000 ng/mL respectively, 2.5 μL) is incubated with the test compound (either 4 μg/mL, 0.4 μg/mL, 0.04 μg/mL, or 0.004 μg/mL, 2.5 μL each) for 2 hr at RT. The FRET peptides (8 μM, 2.5 μL), and appropriate ATP solutions (2.5 μL, 800 μM for c-Src, and 60 μM ATP for Syk) are then added to the enzymes/compound mixtures and incubated for 1 hr. Development reagent (protease, 5 μL) is added for 1 hr prior to detection in a fluorescence microplate reader (Varioskan® Flash, ThermoFisher Scientific).
(§3) In all cases, the site-specific protease cleaves non-phosphorylated peptide only and eliminates the FRET signal. Phosphorylation levels of each reaction are calculated using the ratio of coumarin emission (donor) over fluorescein emission (acceptor), for which high ratios indicate high phosphorylation and low ratios indicate low phosphorylation levels. The percentage inhibition of each reaction is calculated relative to non-inhibited control and the 50% inhibitory concentration (IC50 value) is then calculated from the concentration-response curve.

Syk = Syk (Homo sapiens (Human), UniProt P43405); test: Syk enzyme inhibition (FRET, Z-LYTE); assay type: biochemical
Method: as §1, §2, §3

PBMCs = test: LPS-induced IL-8 release in PBMC cells (assay b); assay type: cell-based, human; settings: LPS-stimulated PBMCs, read-out: IC50 Values for Inhibition of Cytokine Release, PBMCs IL-8
Method in brief: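 Cytokines (TNFα, IL-8) in supernatants were quantified by sandwich ELISA after a 24 h challenge with 1 ng/mL E. coli LPS at 37° C, 5% CO2. Healthy-donor PBMCs had been exposed to compound for 2 h beforehand. IC50 values were fitted from the concentration-response curves.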

d-U937 cells = test: Accumulation of β catenin in d-U937 cells (assay m); assay type: cell-based, human; settings: percentage relative to Reference Compound at 1 μg/mL
Method: U937 cells, a human monocytic cell line, are differentiated into macrophage-type cells by incubation with PMA; (100 ng/mL) for between 48 to 72 hr. The cells are then incubated with either final concentrations of test compound or vehicle for 18 hr. The induction of β-catenin by the test compounds is stopped by replacing the media with 4% formaldehyde solution. Endogenous peroxide activity is neutralised by incubating with quenching buffer (100 μL, 0.1% sodium azide, 1% H2O2 in PBS with 0.05% Tween-20) for 20 min. The cells are washed with washing buffer (200 μL; PBS containing 0.05% Tween-20) and incubated with blocking solution (200 μL; 5% milk in PBS) for 1 hr, re-washed with washing buffer (200 μL) and then incubated overnight with anti-β-catenin antibody solution (50 μL) in 1% BSA/PBS (BD, Oxford, UK).
After washing with washing buffer (3×200 μL; PBS containing 0.05% Tween-20), cells are incubated with an HRP-conjugated secondary antibody solution (100 μL) in 1% BSA/PBS (Dako, Cambridge, UK) and the resultant signal is determined colourimetrically (OD: 450 nm with a reference wavelength of 655 nm) using TMB substrate (50 μL; R&D Systems, Abingdon, UK). This reaction is stopped by addition of 1N H2SO4 solution (50 μL). Cells are then washed with washing buffer and 2% crystal violet solution (50 μL) is applied for 30 min. After washing with washing buffer (3×200 μL), 1% SDS (100 μL) is added to each well and the plates are shaken lightly for 1 hr prior to measuring the absorbance at 595 nm (Varioskan® Flash, Thermo-Fisher Scientific).
The measured OD450-655 readings are corrected for cell number by dividing the OD450-655 by the OD595 readings.

[1] = biological target: p38 MAPKα isoform (MAPK14) (Homo sapiens (Human), UniProt Q16539); test: p38 MAPKα enzyme inhibition (FRET, Z-LYTE, Method 2); assay type: biochemical
Method: as §1
The following two assay variants can be used for determination of p38 MAPKα inhibition.
The inhibitory activities of test compounds against the p38 MAPKα isoform (MAPK14: Invitrogen), are evaluated indirectly by determining the level of activation/phosphorylation of the down-stream molecule, MAPKAP-K2. The p38 MAPKα protein (80 ng/mL, 2.5 μL) is mixed with the test compound (2.5 μL of either 4 μg/mL, 0.4 μg/mL, 0.04 μg/mL or 0.004 μg/mL) for 2 hr at RT. […] The mixture is incubated for 1 hr at RT. Development reagent (protease, 5 μL) is added for 1 hr prior to detection in a fluorescence microplate reader (Varioskan® Flash, ThermoFisher Scientific).
This method follows the same steps as Method 1 above, but utilises a higher concentration of the p38 MAPKα protein (2.5 μL of 200 ng/mL protein instead of 2.5 μL of 80 ng/mL protein) for mixing with the test compound.
as §3

Chain of GSK 3α (P49840 whole entry): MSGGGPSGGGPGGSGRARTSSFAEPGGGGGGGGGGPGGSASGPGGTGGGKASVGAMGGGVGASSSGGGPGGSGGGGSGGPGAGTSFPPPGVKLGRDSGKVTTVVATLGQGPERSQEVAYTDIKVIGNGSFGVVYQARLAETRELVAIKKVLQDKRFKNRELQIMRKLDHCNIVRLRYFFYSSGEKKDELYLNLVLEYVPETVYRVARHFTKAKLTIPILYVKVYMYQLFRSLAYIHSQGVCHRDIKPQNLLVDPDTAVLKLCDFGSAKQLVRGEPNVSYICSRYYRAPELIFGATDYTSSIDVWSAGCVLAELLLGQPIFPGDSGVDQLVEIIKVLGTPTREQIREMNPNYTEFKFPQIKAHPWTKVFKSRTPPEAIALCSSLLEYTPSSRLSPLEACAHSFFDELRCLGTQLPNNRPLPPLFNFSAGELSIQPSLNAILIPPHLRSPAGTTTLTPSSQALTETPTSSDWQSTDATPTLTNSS
Chain of c-Src (P12931 whole entry, looked up): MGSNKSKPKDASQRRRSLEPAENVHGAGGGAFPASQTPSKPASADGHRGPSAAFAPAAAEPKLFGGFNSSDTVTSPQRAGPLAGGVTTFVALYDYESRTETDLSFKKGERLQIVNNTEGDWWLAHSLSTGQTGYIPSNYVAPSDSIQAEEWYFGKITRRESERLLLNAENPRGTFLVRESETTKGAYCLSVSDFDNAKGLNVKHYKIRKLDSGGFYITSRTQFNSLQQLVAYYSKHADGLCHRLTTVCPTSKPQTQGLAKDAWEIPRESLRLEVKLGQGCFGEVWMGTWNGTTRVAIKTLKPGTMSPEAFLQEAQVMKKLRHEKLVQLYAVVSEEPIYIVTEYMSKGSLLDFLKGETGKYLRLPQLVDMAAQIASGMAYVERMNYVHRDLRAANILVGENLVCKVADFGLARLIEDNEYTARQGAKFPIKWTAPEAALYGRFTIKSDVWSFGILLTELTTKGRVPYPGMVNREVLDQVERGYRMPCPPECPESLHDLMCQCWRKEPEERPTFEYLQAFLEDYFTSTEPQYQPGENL
Chain of p38 MAPKα isoform (MAPK14) (Q16539 whole entry, canonical isoform): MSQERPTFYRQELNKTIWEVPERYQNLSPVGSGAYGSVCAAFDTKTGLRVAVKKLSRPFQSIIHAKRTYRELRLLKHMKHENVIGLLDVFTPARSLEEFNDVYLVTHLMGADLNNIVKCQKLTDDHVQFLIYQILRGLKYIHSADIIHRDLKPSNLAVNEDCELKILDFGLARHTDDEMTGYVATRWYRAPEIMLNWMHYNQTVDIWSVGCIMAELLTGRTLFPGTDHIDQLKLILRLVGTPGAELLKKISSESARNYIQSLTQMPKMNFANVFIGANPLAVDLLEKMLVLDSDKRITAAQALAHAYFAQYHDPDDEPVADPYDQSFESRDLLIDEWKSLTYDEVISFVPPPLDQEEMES

SMILES	pIC50 (GSK 3α)	pIC50 (c-Src)	pIC50 (Syk)	pIC50 [1]	pIC50 (PBMCs; Homo sapiens, PBMC)	% β-catenin induction (d-U937 cells; test compound 1 μg/mL) [%]	% β-catenin induction (d-U937 cells; test compound 5 μg/mL) [%]	% β-catenin induction (d-U937 cells; test compound 10 μg/mL) [%]	pIC50 (PBMCs)
COc1c(NC(=O)Nc2ccc(Oc3ccnc(Nc4ccccc4)n3)c3ccccc23)cc(C(C)(C)C)cc1OCP(C)(C)=O [15(d), 1-(5-(tert-butyl)-3-((dimethylphosphoryl)methoxy)-2-methoxyphenyl)-3-(4-((2-(phenylamino)pyrimidin-4-yl)oxy)naphthalen-1-yl)urea]	6.04	7.21	6.32		8.21	11.0	92.0	31.0	
COc1cccc(Nc2nccc(Oc3ccc(NC(=O)Nc4cc(C(C)(C)C)cc(P(C)(C)=O)c4OC)c4ccccc34)n2)c1 [15(g), 1-(5-(tert-butyl)-3-(dimethylphosphoryl)-2-methoxyphenyl)-3-(4-((2-((3-methoxy-phenyl)amino)pyrimidin-4-yl)oxy)naphthalen-1-yl)urea]	6.12					15.0	94.0	94.0	8.72
COCCOCCOCCNC(=O)c1cc(C(C)(C)C)cc(NC(=O)Nc2ccc(Oc3ccnc(Nc4cc(OC)cc(OCCOCCOCCOC)c4)n3)c3ccccc23)c1OC [Example 7, 5-(tert-Butyl)-2-methoxy-3-(3-(4-((2-((3-methoxy-5-(2-(2-(2-methoxyethoxy)ethoxy)ethoxy)-phenyl)amino)pyrimidin-4-yl)oxy)naphthalen-1-yl)ureido)-N-(2-(2-(2-methoxyethoxy)ethoxy)-ethyl)benzamide]	5.97		7.24	6.97	8.34				
COc1c(NC(=O)Nc2ccc(Oc3ccnc(Nc4cc(C)c5[nH]ncc5c4)n3)c3ccccc23)cc(C(C)(C)C)cc1[S+](C)[O-] (centres unmarked) [Example 74, 1-(5-(tert-Butyl)-2-methoxy-3-(methylsulfinyl)phenyl)-3-(4-((2-((7-methyl-1H-indazol-5-yl)amino)pyrimidin-4-yl)oxy)naphthalen-1-yl)urea]	5.91				8.80				
COCC(=O)Nc1cc(Oc2ccc(NC(=O)Nc3cc(C(C)(C)C)nn3-c3ccc(C)cc3)c3ccccc23)ccn1 [Reference Compound, N-(4-(4-(3-(3-tert-butyl-1-p-tolyl-1H-pyrazol-5-yl)ureido)naphthalen-1-yloxy)pyridin-2-yl)-2-methoxyacetamide, reference compound]						100			

Second part, led by results:

pIC50 (GSK 3α)	pIC50 (c-Src)	pIC50 (Syk)	pIC50 [1]	SMILES	pIC50 (PBMCs; Homo sapiens, PBMC)	% β-catenin induction (d-U937 cells; test compound 1 μg/mL) [%]	% β-catenin induction (d-U937 cells; test compound 5 μg/mL) [%]	% β-catenin induction (d-U937 cells; test compound 10 μg/mL) [%]	pIC50 (PBMCs)
5.48	6.80	5.82		COc1c(CNS(C)(=O)=O)cc(C(C)(C)C)cc1NC(=O)Nc1ccc(Oc2ccnc(Nc3ccccc3)c2)c2ccccc12 [15(aq), N-(5-(tert-butyl)-2-methoxy-3-(3-(4-((2-(phenylamino)pyridin-4-yl)oxy)naphthalen-1-yl)ureido)benzyl)methanesulfonamide]	8.36				
< 4.79			6.13	COc1c(NC(=O)Nc2ccc(Oc3ccnc(Nc4ccccc4)c3)c3ccccc23)cc(C(C)(C)C)cc1S(C)(=O)=O [15(m), 1-(5-(tert-butyl)-2-methoxy-3-(methylsulfonyl)phenyl)-3-(4-((2-(phenylamino)pyridin-4-yl)oxy)naphthalen-1-yl)urea]	7.80	−3.0	5.0	5.0	
5.71			7.36	COc1cc(Nc2cc(Oc3ccc(NC(=O)Nc4cc(C(C)(C)C)cc(CC(N)=O)c4OC)c4ccccc34)ccn2)cc(C(=O)NCC(CO)(CO)CO)c1 [38(al), 3-((4-((4-(3-(3-(2-Amino-2-oxoethyl)-5-(tert-butyl)-2-methoxyphenyl)ureido)naphthalen-1-yl)oxy)pyridin-2-yl)amino)-N-(3-hydroxy-2,2-bis(hydroxymethyl)propyl)-5-methoxybenzamide]	8.14				
	7.77	8.30		COc1cc(Nc2cc(Oc3ccc(NC(=O)Nc4cc(C(C)(C)C)cc([S+](C)[O-])c4OC)c4ccccc34)ccn2)ccc1C(=O)O (centres unmarked) [79(g), 4-((4-((4-(3-(5-(tert-Butyl)-2-methoxy-3-(methylsulfinyl)phenyl)ureido)naphthalen-1-yl)oxy)pyridin-2-yl)amino)-2-methoxybenzoic acid]	8.28				
< 4.90				CC(C)(C)c1cc(NC(=O)Nc2ccc(Oc3ccnc(Nc4ccccc4)c3)c3ccccc23)c(O)c(P(C)(C)=O)c1 [Example 39, 1-(5-(tert-Butyl)-3-(dimethylphosphoryl)-2-hydroxyphenyl)-3-(4-((2-(phenylamino)pyridin-4-yl)oxy)naphthalen-1-yl)urea]	7.50				
5.37			6.55	COc1cc(Nc2cc(Oc3ccc(NC(=O)Nc4cc(C(C)(C)C)cc(OCC(CO)(CO)CO)c4OC)c4ccccc34)ccn2)cc(C(N)=O)c1 [Example 67, 3-((4-((4-(3-(5-(tert-Butyl)-3-(3-hydroxy-2,2-bis(hydroxymethyl)propoxy)-2-methoxyphenyl)ureido)naphthalen-1-yl)oxy)pyridin-24)amino)-5-methoxybenzamide]	8.25				
7.15				COc1cc(Nc2cc(Oc3ccc(NC(=O)Nc4cc(C(C)(C)C)cc(P(C)(C)=O)c4OC)c4ccccc34)ccn2)ccc1C(=O)O [Example 76, 4-((4-((4-(3-(5-(tert-Butyl)-3-(dimethylphosphoryl)-2-methoxyphenyl)ureido)naphthalen-1-yl)oxy)pyridin-2-yl)amino)-2-methoxybenzoic acid]	7.38				
6.11				CNC(=O)c1cc(CN2CCN(C)CC2)cc(Nc2cc(Oc3ccc(NC(=O)Nc4cc(C(C)(C)C)cc(P(C)(C)=O)c4OC)c4ccccc34)ccn2)c1 [Example 78, 3-((4-((4-(3-(5-(tert-Butyl)-3-(dimethylphosphoryl)-2-methoxyphenyl)ureido)naphthalen-1-yl)oxy)pyridin-2-yl)amino)-N-methyl-5-((4-methylpiperazin-1-yl)methyl)benzamide]	7.64				

Source: patent US9890185B2, “Urea derivatives useful as kinase inhibitors” (Respivert Limited, priority 2013, dated 2018)
